Assay results as given in patent US20250084094A1 (Vertex Pharmaceuticals Incorporated, priority 2021, published 2025).

Target: T1, APOL1 (Homo sapiens, UniProt O14791)
T1 sequence (O14791 1-398 S342G/I384M): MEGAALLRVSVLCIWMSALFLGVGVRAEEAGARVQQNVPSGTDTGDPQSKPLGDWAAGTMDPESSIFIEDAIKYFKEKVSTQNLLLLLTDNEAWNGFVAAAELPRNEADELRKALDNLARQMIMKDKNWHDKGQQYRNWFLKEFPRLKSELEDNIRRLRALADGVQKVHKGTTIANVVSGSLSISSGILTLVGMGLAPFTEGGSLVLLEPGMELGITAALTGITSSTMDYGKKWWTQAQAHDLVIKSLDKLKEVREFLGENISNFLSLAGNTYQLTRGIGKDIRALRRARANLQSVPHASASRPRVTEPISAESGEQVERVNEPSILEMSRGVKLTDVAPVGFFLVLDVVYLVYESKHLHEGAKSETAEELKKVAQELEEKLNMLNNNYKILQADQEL
Assay: MultiTox-Fluor Multiplex Cytotoxicity Assay in tet-inducible APOL1 T-REx-HEK293 cells
Type: cell-based
Conditions: tet-inducible transgenic APOL1 T-REx-HEK293 cell lines, 50 ng/mL tet, 24 hours, ratio of dead to live cells; read-out: IP50 (nM) (i.e., IC50 for cell proliferation)
Description: The MultiTox-Fluor Multiplex Cytotoxicity Assay is a single-reagent-addition, homogeneous, fluorescence assay that measures the number of live and dead cells simultaneously in culture wells. The assay measures cell viability and cytotoxicity by detecting two distinct protease activities. The live-cell protease activity is restricted to intact viable cells and is measured using a fluorogenic, cell-permeant peptide glycyl-phenylalanylamino fluorocoumarin (GF-AFC) substrate. The substrate enters intact cells, where it is cleaved to generate a fluorescent signal proportional to the number of living cells. […] A second, cell-impermeant, fluorogenic peptide substrate (bis-AAF-R110 Substrate) is used to measure dead-cell protease that has been released from cells that have lost membrane integrity. A ratio of dead to live cells is used to normalize data.
Briefly, the tet-inducible transgenic APOL1 T-REx-HEK293 cell lines were incubated with 50 ng/mL tet to induce APOL1 in the presence of 3-(2-(4-fluorophenyl)-1H-indol-3-yl)-N-((3S,4R)-4-hydroxy-2-oxopyrrolidin-3-yl)propenamide at 10.03, 3.24, 1.13, 0.356, 0.129, 0.042, 0.129, 0.0045, 0.0015, 0.0005 μM in duplicate for 24 hours in a humidified 37° C. incubator. The MultiTox reagent was added to each well and placed back in the incubator for an additional 30 minutes. The plate was read on the EnVision plate reader. A ratio of dead to live cells was used to normalize, and data was imported, analyzed, and fit using Genedata Screener (Basel, Switzerland) software. Data was normalized using percent of control, no tet (100% viability), and 50 ng/mL tet treated (0% viability),and fit using Smart Fit. The reagents, methods, and complete protocol for the MultiTox assay are described below.
Human embryonic kidney (HEK293) cell lines containing a tet-inducible expression system (T-REx™; Invitrogen, Carlsbad, CA) and Adeno-associated virus site 1 pAAVS1-Puro-APOL1 G0 or pAAVS1-Puro-APOL1 G1 or pAAVS1-Puro-APOL1 G2 Clones G0 DC2.13, Gi DC3.25, and G2 DC4.44 were grown in a T-225 flask at ˜90% confluency in cell growth media (DMEM, 10% Tet-free FBS, 2 mM L-glutamine, 100 Units/mL penicillin-streptomycin, 5 μg/mL blasticidin S HCl, 1 μg/mL puromycin dihydrochloride). Cells were washed with DPBS and then trypsinized to dissociate from the flask. Media was used to quench the trypsin, cells were then pelleted at 200 g and resuspended in fresh cell assay media (DMEM, 2% Tet-free FBS, 2 mM L-glutamine, 100 Units/mL penicillin-streptomycin). Cells were counted and diluted to 1.17×10^6 cells/mL. 20 μL of cells (23,400/well) were dispensed in every well of a 384-well Poly-D-Lysine coated plate using the Multidrop dispenser. The plates were then incubated at room temperature for one hour.
Tetracycline is needed to induce APOL1 expression. 1 mg/mL tet stock in water was diluted to 250 ng/mL (5×) in cell assay media. 60 μL of cell assay media (no tet control) was dispensed in columns 1 and 24, and 60 μL of 5× tet in 384-PP-round bottom plate was dispensed in columns 2 to 23 with the Multidrop dispenser.
Assay ready plates from the Global Compound Archive were ordered using template 384_APOLICell_DR10n2_50 uM_v3. Compounds were dispensed at 200 nL in DMSO. The final top concentration was 10 μM with a 10 point 3-fold dilution in duplicate in the MultiTox assay.
20 μL was transferred from the 5× tet plate to the ARP and mixed, then 5 μL of 5× tet and the compounds were transferred to the cell plate and mixed using the Bravo. The cell plate was placed in the humidified 37° C. 5% CO2 incubator for 24 hours.
The MultiTox-Fluor Multiplex Cytotoxicity Assay was performed in accordance with the manufacturer's protocol. After cells were incubated with tet and compound for 24 hours, 25 μL of 1x MultiTox reagent was added to each well using the Multidrop dispenser; the plates were placed on a plate shaker (600 rpm) for 2 minutes, then centrifuged briefly and placed back in the 37° C. incubator for 30 minutes. […]

## C[C@H]1C[C@@]2(C[C@@H](c3cn(C)nn3)N1)C(=O)Nc1cc(Cl)ccc12 [Compound 36, (2′S,3S,6′S)-6-chloro-2′-methyl-6′-(1-methyltriazol-4-yl)spiro[indoline-3,4′-piperidine]-2-one]
  IC50: < 50 nM

## C[C@H]1C[C@@]2(C[C@@H](c3cn(C)nn3)N1)C(=O)Nc1ccc(C(F)(F)F)cc12 [Compound 37, (2′S,3S,6′S)-2′-methyl-6′-(1-methyltriazol-4-yl)-5-(trifluoromethyl)spiro[indoline-3,4′-piperidine]-2-one]
  IC50: < 50 nM

## C[C@H]1C[C@@]2(C[C@@H](c3cn(C)nn3)N1)C(=O)Nc1cc(C(F)(F)F)ccc12 [Compound 38, (2′S,3S,6′S)-2′-methyl-6′-(1-methyltriazol-4-yl)-6-(trifluoromethyl)spiro[indoline-3,4′-piperidine]-2-one]
  IC50: < 50 nM

## C[C@H]1CC2(C[C@@H](c3cn(C)nn3)N1)OC(C(N)=O)c1cc(Cl)ccc12 (stereo partly drawn) [Compound 39, (2′S,6′S)-6-chloro-2′-methyl-6′-(1-methyltriazol-4-yl)spiro[1H-isobenzofuran-3,4′-piperidine]-1-carboxamide]
  IC50: < 50 nM

## C[C@H]1CC2(C[C@@H](c3cn(C)nn3)N1)OC(C(N)=O)c1ccc(Cl)cc12 (stereo partly drawn) [Compound 41, (2′S,6′S)-5-chloro-2′-methyl-6′-(1-methyltriazol-4-yl)spiro[1H-isobenzofuran-3,4′-piperidine]-1-carboxamide]
  IC50: < 50 nM
